Test results from patent US20160075653A1, “NEMATICIDAL N-(PHENYLCYCLOALKYL)CARBOXAMIDES AND N-(PHENYLCYCLOALKYL)THIOCARBOXAMIDES” (BAYER CROPSCIENCE AKTIENGESELLSCHAFT, priority 2013, published 2016).
Where two headings read alike, the source gives them in different places.

Experiment: Measurement of log P values by HPLC on reversed phase columns (methods [a] pH 2.3, [b] pH 2.7, [c] pH 7.8)
Type: physicochemical
Conditions: for chromatographic logP: reversed phase HPLC columns, read-out: logP
Procedure, shortened: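 Retention times were converted to log P by linear interpolation between linear alkan-2-one standards (3 to 16 carbons) of known log P. Eluents, each with 10% to 95% acetonitrile gradient: phosphoric acid 0.1% at pH 2.3 [a]; formic acid 0.1% at pH 2.7, LC-MS [b]; ammonium hydrogen carbonate 0.001 molar at pH 7.8, LC-MS [c].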

[1] = method [b], HPLC reversed phase, pH 2.7
[2] = HPLC on reversed phase column, method [b], pH 2.7
[3] = HPLC reversed phase, method [b] (pH 2.7)
[4] = HPLC reversed phase, method [c] pH 7.8
[5] = HPLC on reversed phase columns, method [b], pH 2.7
[6] = method [c], HPLC reversed phase, pH 7.8
[7] = pH 2.7, HPLC on reversed phase columns, method [b] (pH 2.7)

## Cn1cc(C(=O)NC2CC2c2ccccc2Cl)c(C(F)F)n1 (stereo not drawn) [Example 231]
[1]
  logP: 2.45^[b]

## O=C(N[C@@H]1CC[C@H]1c1cccc(F)c1C(F)(F)F)c1ccc(Cl)cc1 (relative stereo) [Example 600]
[2]
  logP: 3.88^[b]

## Cn1cc(C(=O)N(C2CC2)C2CCCCC2c2ccccc2)c(C(F)F)n1 (stereo not drawn) [Example 143]
[1]
  logP: 3.55^[b]

## O=C(NC1CCC1c1c(F)cccc1F)c1cccc(Cl)c1 (stereo not drawn) [Example 442]
[3]
  logP: 3.26^[b]

## O=C(NC1CCCC1c1ccccc1Br)c1ccccc1I (stereo not drawn) [Example 357]
[3]
  logP: 3.67^[b]

## CC(C)Oc1ccc([C@H]2CCC[C@H]2NC(=O)c2nccnc2C(F)(F)F)cc1 (relative stereo) [Example 340]
[3]
  logP: 3.62^[b]
[4]
  logP: 3.55^[c];

## O=C(NC1CC1c1ccc(Cl)cc1)c1c(F)cccc1I (stereo not drawn) [Example 464]
[3]
  logP: 3.02^[b]
[4]
  logP: 2.99^[c];

## O=C(NC1CCC1c1ccc(Cl)cc1C(F)(F)F)c1sccc1I (stereo not drawn) [Example 710]
[2]
  logP: 4.55^[b]

## N#Cc1ncccc1C(=O)N[C@@H]1CCC[C@@H]1c1ccc(F)c(F)c1 (relative stereo) [Example 74]
[5]
  logP: 3.21^[b]

## O=C(NC1CCC1c1c(Cl)cccc1Cl)c1cccnc1 (stereo not drawn) [Example 724]
[5]
  logP: 2.17^[b]

## Cc1nc(C(F)(F)F)c(C(=O)N[C@@H]2C[C@@H]2c2ccc(Cl)cc2Cl)s1 (relative stereo) [Example 568]
[3]
  logP: 3.29^[b]

## Cc1cccnc1C(=O)N[C@@H]1CCC[C@@H]1c1ccc(F)c(F)c1 (relative stereo) [Example 64]
[5]
  logP: 3.31^[b]

## O=C(N[C@@H]1CC[C@@H]1c1cccc(F)c1C(F)(F)F)c1ccccc1Br (relative stereo) [Compound 654]
[2]
  logP: 3.30^[b]

## CCOc1nn(C)cc1C(=O)N[C@@H]1C[C@H]1c1ccccc1 (relative stereo) [Example 43]
[5]
  logP: 2.36^[b]

## Cc1nc(C(F)(F)F)c(C(=O)N[C@@H]2CC[C@@H]2c2ccc(Cl)cc2Cl)s1 (relative stereo) [Example 669]
[2]
  logP: 3.58^[b]

## Cc1nn(C)c(F)c1C(=O)N(C1CC1)C1CCCC1c1ccccc1Cl (stereo not drawn) [Example 164]
[1]
  logP: 3.71^[b]

## Cn1nc(C(F)F)c(C(=O)N(C2CC2)C2CCCCC2c2ccc(Cl)cc2Cl)c1F (stereo not drawn) [Example 168]
[1]
  logP: 5.05^[b]

## O=C(NC1CCC1c1ccc(Cl)cc1Cl)c1ccc(Cl)cc1 (stereo not drawn) [Example 453]
[3]
  logP: 3.85^[b]

## O=C(N[C@@H]1CCC[C@@H]1c1ccc(F)c(F)c1)c1ccccc1OC(F)F (relative stereo) [Example 119]
[5]
  logP: 3.51^[b]

## O=C(N[C@@H]1CC[C@@H]1c1cccc(F)c1C(F)(F)F)c1ncc(C(F)(F)F)cc1Cl (relative stereo) [Example 603]
[2]
  logP: 3.81^[b]

## O=C(NC1CCC1c1ccc(F)cc1C(F)(F)F)c1ncc(C(F)(F)F)cc1Cl (stereo not drawn) [Example 483]
[3]
  logP: 3.97^[b]

## O=C(N[C@@H]1CCC[C@@H]1c1ccc(F)c(F)c1)c1ccccc1C(F)(F)F (relative stereo) [Example 88]
[5]
  logP: 3.50^[b]

## O=C(N[C@@H]1CCC[C@@H]1c1ccc(C(F)(F)F)cc1)c1c(F)cccc1F (relative stereo) [Example 304]
[3]
  logP: 3.51^[b]
[4]
  logP: 3.47^[c];

## O=C(N[C@@H]1CCC[C@H]1c1ccc(F)c(F)c1)C1=C(C(F)(F)F)OCCS1 (relative stereo) [Example 130]
[1]
  logP: 3.39^[b]

## O=C(N[C@@H]1CC[C@@H]1c1ccc(Cl)cc1C(F)(F)F)c1ccccc1 (relative stereo) [Example 680]
[2]
  logP: 3.51^[b]

## Cc1nn(C)c(F)c1C(=O)NC1CC1c1ccc(F)cc1 (stereo not drawn) [Example 18]
[5]
  logP: 3.01^[b]

## O=C(N[C@@H]1CCC[C@@H]1c1ccc(F)c(F)c1)c1sccc1I (relative stereo) [Example 101]
[5]
  logP: 3.79^[b]

## Cn1cc(C(=O)NC2CCCCC2c2ccccc2)c(C(F)F)n1 (stereo not drawn) [Example 186]
[1]
  logP: 3.00^[b]

## O=C(NC1CC1c1ccc(Cl)cc1Cl)c1cccnc1Cl (stereo not drawn) [Example 211]
[1]
  logP: 2.82^[b]
[6]
  logP: 2.77^[c];

## O=C(N[C@@H]1CC[C@H]1c1ccccc1C(F)(F)F)c1ccccc1I [Example 497]
pH 2.7, HPLC reversed phase, method [b] (pH 2.7)
  chromatographic logP: 3.61

## Cc1nn(C)c(F)c1C(=O)N(C1CC1)C1CCCC1c1ccc(Cl)cc1Cl (stereo not drawn) [Example 159]
[1]
  logP: 4.18^[b]

## O=C(NC1CCCCC1c1ccccc1Br)c1cccnc1C(F)(F)F (stereo not drawn) [Example 403]
[3]
  logP: 3.53^[b]

## Cc1nn(C)c(Cl)c1C(=O)NC1CC1c1ccccc1 (stereo not drawn) [Example 9]
[5]
  logP: 2.12^[b]

## Cc1nc(C(F)F)c(C(=O)N(C2CC2)C2CCCCC2c2ccc(Cl)cc2Cl)s1 (stereo not drawn) [Example 170]
[1]
  logP: 5.25^[b]

## Cc1nn(C)c(C)c1C(=O)NC1CC1c1ccc(Br)cc1 (stereo not drawn) [Example 21]
[5]
  logP: 3.26^[b]

## O=C(N[C@@H]1C[C@@H]1c1ccc(Cl)cc1Cl)c1sccc1I (relative stereo) [Compound 582]
[3]
  logP: 3.78^[b]

## Cn1cc(C(=O)N[C@@H]2CCCC[C@H]2c2ccccc2C(F)(F)F)c(C(F)F)n1 (relative stereo) [Example 288]
[3]
  logP: 3.56^[b]

## O=C(N[C@@H]1CC[C@H]1c1ccc(Cl)cc1C(F)(F)F)c1cccnc1Cl (relative stereo) [Example 715]
[2]
  logP: 3.33^[b]

## O=C(NC1CCC1c1ccc(Cl)cc1Cl)c1ccc(Cl)cc1 (stereo not drawn) [Example 452]
[3]
  logP: 4.33^[b]

## O=C(N[C@@H]1CCC[C@@H]1c1ccc(F)c(F)c1)c1ccccc1F (relative stereo) [Example 66]
[5]
  logP: 3.33^[b]

## Cc1nn(C)cc1C(=O)NC1CCCCC1c1ccccc1Cl (stereo not drawn) [Example 377]
[3]
  logP: 2.64^[b]

## O=C(N[C@@H]1CC[C@@H]1c1c(Cl)cccc1Cl)c1ccccc1C(F)(F)F [Example 736]
[7]
  chromatographic logP: 3.71

## O=C(NC1CC1c1ccc(Cl)cc1)c1ccccc1C(F)(F)F (stereo not drawn) [Example 201]
[1]
  logP: 3.27^[b]
[6]
  logP: 3.21^[c];

## O=C(NC1CCC1c1c(F)cccc1F)c1ccc(Cl)cc1 (stereo not drawn) [Example 444]
[3]
  logP: 3.20^[b]

## Cn1cc(C(=O)NC2CCC2c2ccc(F)cc2C(F)(F)F)c(C(F)F)n1 (stereo not drawn) [Example 484]
[3]
  logP: 3.02^[b]

## O=C(NC1CCCCC1c1ccccc1Br)c1ccccc1Cl (stereo not drawn) [Example 405]
[3]
  logP: 3.97^[b]

## Cc1nc(C(F)F)c(C(=O)N(C2CC2)C2CCCC2c2ccc(Cl)cc2Cl)s1 (stereo not drawn) [Example 173]
[1]
  logP: 4.85^[b]

## Cn1nc(C(F)F)c(C(=O)N(C2CC2)C2CCCC2c2ccccc2Cl)c1F (stereo not drawn) [Example 167]
[1]
  logP: 4.31^[b]

## Cc1nn(C)cc1C(=O)NC1CCCCC1c1c(F)cccc1F (stereo not drawn) [Example 393]
[3]
  logP: 2.51^[b]

## O=C(N[C@@H]1CC[C@@H]1c1cc(F)ccc1C(F)(F)F)c1ccc(Cl)cc1Cl (relative stereo) [Example 557]
[3]
  logP: 3.85^[b]

## O=C(NC1CCCCC1c1ccccc1C(F)(F)F)c1ccccc1C(F)(F)F (stereo not drawn) [Example 390]
[3]
  logP: 4.11^[b]

## O=C(N[C@@H]1CC[C@H]1c1ccccc1C(F)(F)F)c1ccccc1[N+](=O)[O-] (relative stereo) [Example 637]
[2]
  logP: 3.13^[b]

## O=C(N[C@@H]1CC[C@@H]1c1c(Cl)cccc1Cl)c1ccc(Cl)cc1 [Example 738]
[7]
  chromatographic logP: 3.36

## Cn1nc(C(F)F)c(C(=O)N(C2CC2)C2CCCC2c2ccc(Cl)cc2Cl)c1F (stereo not drawn) [Example 166]
[1]
  logP: 4.67^[b]

## O=C(NC1CCCC1c1ccccc1Cl)c1ccccc1I (stereo not drawn) [Example 295]
[3]
  logP: 3.51^[b]
